Here are results for one compound from ChEMBL document CHEMBL4828724 (Eur J Med Chem, 2021).

Data set [1] has as its target Cytochrome P450 3A4 (Homo sapiens, UniProt P08684). As to the kind of experiment: Inhibition of CYP3A4 (unknown origin). It counts as ADME.
A short description of data set [2]: Metabolic stability in monkey liver microsomes assessed as intrinsic clearance at 1 uM in the presence of NADPH measured for 60 mins by LC-MS/MS analysis. It counts as ADME, Macaca mulatta, Microsome. Conditions: rhesus monkey, read-out: CLH. (Liver microsomes are vesicles of endoplasmic reticulum, rich in cytochrome P450 enzymes.)
The test system of data set [3] is Rattus norvegicus. Nature of the data set: Reduction in spontaneous locomotor activity in Sprague-Dawley rat at 15 umol/kg, po measured for 3 hrs. It counts as functional.
A short description of data set [4]: AUC (0 to infinity) in Sprague-Dawley rat at 10 umol/kg, ig administered as single dose by LC-MS/MS analysis. It counts as ADME. Also noted: time infinity, route […], dose 10 µmol/kg. To be noted: in vivo, po.
Data set [5] has as its target Cytochrome P450 2C19 (Homo sapiens, UniProt P33261). As to the kind of experiment: Inhibition of CYP2C19 (unknown origin). It counts as ADME.
For data set [6], the system named is Rattus norvegicus. Nature of the data set: Reduction in spontaneous locomotor activity in Sprague-Dawley rat at 3 umol/kg, po measured for 3 hrs. It counts as functional.
A short description of data set [7]: Metabolic stability in mouse liver microsomes assessed as parent compound remaining at 1 uM in the presence of NADPH measured after 60 mins by LC-MS/MS analysis. It counts as ADME, Microsome. To be noted: liver microsomes, read-out: Stability.
A short description of data set [8]: Tmax in Sprague-Dawley rat at 10 umol/kg, ig administered as single dose measured for 12 hrs by LC-MS/MS analysis. To be noted: in vivo, po, dose 10 µmol/kg. It counts as ADME.
Data set [9] can be described thus: Metabolic stability in mouse liver microsomes assessed as intrinsic clearance at 1 uM in the presence of NADPH measured for 60 mins by LC-MS/MS analysis. It counts as ADME, Microsome. Conditions: read-out: CLH.
Data set [10] can be described thus: Cmax in Sprague-Dawley rat at 10 umol/kg, ig administered as single dose measured for 12 hrs by LC-MS/MS analysis. It counts as ADME. Also noted: route […], time 12 hrs, dose 10 µmol/kg. To be noted: in vivo, po.
Data set [11] can be described thus: Apparent volume of distribution during terminal phase in Sprague-Dawley rat at 10 umol/kg, ig administered as single dose measured after 12 hrs by LC-MS/MS analysis. It counts as ADME. Conditions: in vivo, po, dose 10 µmol/kg, read-out: Vz/F.
Data set [12] is described as follows: Metabolic stability in human liver microsomes assessed as intrinsic clearance at 1 uM in the presence of NADPH measured for 60 mins by LC-MS/MS analysis. It counts as ADME, Microsome. Conditions: read-out: CLH.
A short description of data set [13]: Metabolic stability in monkey liver microsomes assessed as parent compound remaining at 1 uM in the presence of NADPH measured after 60 mins by LC-MS/MS analysis. It counts as ADME, Macaca mulatta, Microsome. Conditions: rhesus monkey, liver microsomes, read-out: Stability.
The nature of data set [14]: Half life in Sprague-Dawley rat at 10 umol/kg, ig administered as single dose measured for 12 hrs by LC-MS/MS analysis. It counts as ADME. Conditions: in vivo, po, dose 10 µmol/kg.
Data set [15] has as its target Voltage-gated inwardly rectifying potassium channel KCNH2 (Homo sapiens, UniProt Q12809). As to the kind of experiment: Inhibition of human ERG.
The target of data set [16] is T1, Cytochrome P450 2B6 (Homo sapiens, UniProt P20813).
T1 sequence (P20813 whole entry): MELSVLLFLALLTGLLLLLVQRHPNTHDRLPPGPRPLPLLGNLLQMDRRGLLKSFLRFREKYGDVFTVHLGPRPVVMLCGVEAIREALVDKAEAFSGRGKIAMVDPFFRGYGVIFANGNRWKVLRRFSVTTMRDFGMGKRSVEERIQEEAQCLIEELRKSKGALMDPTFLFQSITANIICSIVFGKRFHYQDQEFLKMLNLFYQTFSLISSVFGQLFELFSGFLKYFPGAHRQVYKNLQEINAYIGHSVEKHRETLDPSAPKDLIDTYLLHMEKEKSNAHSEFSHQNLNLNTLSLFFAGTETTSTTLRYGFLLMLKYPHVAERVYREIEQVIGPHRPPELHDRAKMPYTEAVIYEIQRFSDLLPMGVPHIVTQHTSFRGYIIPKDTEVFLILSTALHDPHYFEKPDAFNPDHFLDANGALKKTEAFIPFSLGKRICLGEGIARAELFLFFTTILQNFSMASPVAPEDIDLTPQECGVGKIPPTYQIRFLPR
As to the kind of experiment: Inhibition of CYP2B6 (unknown origin). It counts as ADME.

Data set [17] is described as follows: Drug uptake in Sprague-Dawley rat brain at 5 umol/kg, ig measured after 2 hrs by LC-MS/MS analysis. Conditions: in vivo, po, dose 5 µmol/kg. It counts as ADME, tissue-based.
The target in data set [18] is Synaptic vesicular amine transporter (Rattus norvegicus) (UniProt Q01827). Nature of the data set: Inhibition of [3H]DA uptake at VMAT2 in rat striatal synaptosome at 0.1 uM incubated for 10 mins followed by [3H]DA addition and measured after 20 mins by TopCount scintillation counting method relative to control. It counts as subcellular. To be noted: Striatum, time 30.0 min.

In data set [19] the target is Cytochrome P450 2D6 (Homo sapiens, UniProt P10635). As to the kind of experiment: Inhibition of CYP2D6 (unknown origin). It counts as ADME.
Data set [20] in a line: Ratio of drug level in Sprague-Dawley rat brain to blood at 5 umol/kg, ig measured after 6 hrs by LC-MS/MS analysis. Conditions: po, dose 5 µmol/kg. It counts as ADME, tissue-based.
A short description of data set [21]: Clearance in Sprague-Dawley rat at 10 umol/kg, ig administered as single dose measured for 12 hrs by LC-MS/MS analysis. It counts as ADME. Conditions: in vivo, po, dose 10 µmol/kg.
In data set [22] the target is Synaptic vesicular amine transporter (Rattus norvegicus) (UniProt Q01827). Nature of the data set: Inhibition of [3H]DA uptake at VMAT2 in rat striatal synaptosome at 1 uM incubated for 10 mins followed by [3H]DA addition and measured after 20 mins by TopCount scintillation counting method relative to control. It counts as subcellular. To be noted: Striatum, time 30.0 min.

Data set [23] can be described thus: Metabolic stability in human liver microsomes assessed as parent compound remaining at 1 uM in the presence of NADPH measured after 60 mins by LC-MS/MS analysis. It counts as ADME, Microsome. Conditions: read-out: Stability.
For data set [24], the target named is Cytochrome P450 2C9 (Homo sapiens, UniProt P11712). As to the kind of experiment: Inhibition of CYP2C9 (unknown origin). It counts as ADME.

Molecules are shown by their SMILES.

In general, IC50 refers to the point on the concentration scale where inhibition reaches its midpoint. A word on the inhibition in vivo: it is the share of the control response that was lost under treatment. Broadly, the AUC(0-inf) is the area under the concentration-time curve extrapolated to infinity. The Tmax is the time at which the peak concentration occurs. What is called Cmax is the peak of the concentration-time curve. In general, half-life refers to the time needed for the level to fall by half in the phase considered. As a reminder, the inhibition is the percentage by which the read-out fell short of the control. One may read the Kp as the ratio of the level in a tissue or fluid to that in plasma or blood. Broadly, the CL/F is clearance divided by bioavailability, as obtained after extravascular dosing.

Sequence of Synaptic vesicular amine transporter (Rattus norvegicus) (Q01827 whole entry): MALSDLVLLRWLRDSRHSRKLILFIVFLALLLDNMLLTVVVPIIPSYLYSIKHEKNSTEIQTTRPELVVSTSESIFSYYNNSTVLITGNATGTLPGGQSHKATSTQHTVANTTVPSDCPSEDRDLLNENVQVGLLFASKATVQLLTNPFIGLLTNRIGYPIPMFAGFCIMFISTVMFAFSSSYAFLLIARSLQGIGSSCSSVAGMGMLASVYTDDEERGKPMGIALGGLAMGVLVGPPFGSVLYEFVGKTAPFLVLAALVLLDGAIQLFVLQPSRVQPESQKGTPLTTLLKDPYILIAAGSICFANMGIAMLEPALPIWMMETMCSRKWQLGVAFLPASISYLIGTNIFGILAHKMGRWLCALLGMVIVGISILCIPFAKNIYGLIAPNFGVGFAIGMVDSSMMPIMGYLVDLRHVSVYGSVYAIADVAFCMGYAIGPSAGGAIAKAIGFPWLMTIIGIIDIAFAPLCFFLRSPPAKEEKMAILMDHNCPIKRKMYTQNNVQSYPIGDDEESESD
Sequence of Cytochrome P450 2C19 (P33261 whole entry): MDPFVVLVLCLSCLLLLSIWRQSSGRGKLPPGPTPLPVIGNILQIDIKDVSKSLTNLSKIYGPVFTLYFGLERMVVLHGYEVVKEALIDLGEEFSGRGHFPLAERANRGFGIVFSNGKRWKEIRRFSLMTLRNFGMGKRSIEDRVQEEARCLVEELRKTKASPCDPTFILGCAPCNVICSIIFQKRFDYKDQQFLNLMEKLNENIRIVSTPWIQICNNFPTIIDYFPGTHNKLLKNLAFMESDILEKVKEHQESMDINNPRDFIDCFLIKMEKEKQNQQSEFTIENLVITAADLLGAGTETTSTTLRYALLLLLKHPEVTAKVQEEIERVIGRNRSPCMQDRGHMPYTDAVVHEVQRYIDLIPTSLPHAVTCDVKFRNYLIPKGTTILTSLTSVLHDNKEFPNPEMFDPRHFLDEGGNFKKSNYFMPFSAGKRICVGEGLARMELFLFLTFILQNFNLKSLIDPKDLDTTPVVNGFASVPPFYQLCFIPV
Sequence of Cytochrome P450 3A4 (P08684 whole entry): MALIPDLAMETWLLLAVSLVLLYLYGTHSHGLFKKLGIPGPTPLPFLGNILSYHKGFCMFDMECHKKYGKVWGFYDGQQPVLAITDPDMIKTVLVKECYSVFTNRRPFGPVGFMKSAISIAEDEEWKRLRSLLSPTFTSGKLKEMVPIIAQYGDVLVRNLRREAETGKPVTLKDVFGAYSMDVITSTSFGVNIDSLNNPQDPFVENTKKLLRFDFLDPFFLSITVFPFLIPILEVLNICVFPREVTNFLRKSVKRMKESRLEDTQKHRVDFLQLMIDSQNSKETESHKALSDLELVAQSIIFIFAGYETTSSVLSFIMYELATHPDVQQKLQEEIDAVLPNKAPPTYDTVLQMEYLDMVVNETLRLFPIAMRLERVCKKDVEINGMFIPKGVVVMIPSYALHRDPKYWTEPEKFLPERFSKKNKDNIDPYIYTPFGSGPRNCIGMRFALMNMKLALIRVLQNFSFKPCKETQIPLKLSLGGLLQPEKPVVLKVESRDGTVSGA
Sequence of Cytochrome P450 2C9 (P11712 whole entry): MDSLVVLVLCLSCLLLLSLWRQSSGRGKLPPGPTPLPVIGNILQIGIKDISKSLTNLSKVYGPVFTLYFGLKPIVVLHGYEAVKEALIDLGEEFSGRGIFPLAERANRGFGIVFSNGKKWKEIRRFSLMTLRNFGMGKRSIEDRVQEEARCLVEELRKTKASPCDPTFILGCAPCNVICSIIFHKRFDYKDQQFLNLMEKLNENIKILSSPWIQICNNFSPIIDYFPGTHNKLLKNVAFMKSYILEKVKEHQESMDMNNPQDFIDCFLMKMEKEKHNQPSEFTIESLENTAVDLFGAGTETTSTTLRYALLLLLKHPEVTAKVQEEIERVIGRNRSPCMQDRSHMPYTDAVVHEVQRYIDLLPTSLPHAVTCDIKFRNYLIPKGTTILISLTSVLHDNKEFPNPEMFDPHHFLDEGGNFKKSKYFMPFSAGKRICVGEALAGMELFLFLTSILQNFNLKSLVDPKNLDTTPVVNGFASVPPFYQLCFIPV
Sequence of Cytochrome P450 2D6 (P10635 whole entry): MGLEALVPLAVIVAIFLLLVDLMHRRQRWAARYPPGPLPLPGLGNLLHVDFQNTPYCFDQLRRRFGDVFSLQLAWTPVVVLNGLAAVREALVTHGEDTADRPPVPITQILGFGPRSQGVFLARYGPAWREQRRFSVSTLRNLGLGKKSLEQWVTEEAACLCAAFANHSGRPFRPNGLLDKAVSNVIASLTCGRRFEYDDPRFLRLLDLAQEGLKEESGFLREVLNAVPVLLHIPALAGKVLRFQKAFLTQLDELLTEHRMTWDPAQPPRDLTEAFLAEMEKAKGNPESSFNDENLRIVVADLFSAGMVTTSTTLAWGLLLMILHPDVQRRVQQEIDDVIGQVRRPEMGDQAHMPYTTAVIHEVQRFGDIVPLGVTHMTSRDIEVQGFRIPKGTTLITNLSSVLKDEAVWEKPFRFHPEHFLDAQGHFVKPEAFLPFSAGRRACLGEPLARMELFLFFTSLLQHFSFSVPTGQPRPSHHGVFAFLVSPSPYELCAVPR
Sequence of Voltage-gated inwardly rectifying potassium channel KCNH2 (Q12809 whole entry): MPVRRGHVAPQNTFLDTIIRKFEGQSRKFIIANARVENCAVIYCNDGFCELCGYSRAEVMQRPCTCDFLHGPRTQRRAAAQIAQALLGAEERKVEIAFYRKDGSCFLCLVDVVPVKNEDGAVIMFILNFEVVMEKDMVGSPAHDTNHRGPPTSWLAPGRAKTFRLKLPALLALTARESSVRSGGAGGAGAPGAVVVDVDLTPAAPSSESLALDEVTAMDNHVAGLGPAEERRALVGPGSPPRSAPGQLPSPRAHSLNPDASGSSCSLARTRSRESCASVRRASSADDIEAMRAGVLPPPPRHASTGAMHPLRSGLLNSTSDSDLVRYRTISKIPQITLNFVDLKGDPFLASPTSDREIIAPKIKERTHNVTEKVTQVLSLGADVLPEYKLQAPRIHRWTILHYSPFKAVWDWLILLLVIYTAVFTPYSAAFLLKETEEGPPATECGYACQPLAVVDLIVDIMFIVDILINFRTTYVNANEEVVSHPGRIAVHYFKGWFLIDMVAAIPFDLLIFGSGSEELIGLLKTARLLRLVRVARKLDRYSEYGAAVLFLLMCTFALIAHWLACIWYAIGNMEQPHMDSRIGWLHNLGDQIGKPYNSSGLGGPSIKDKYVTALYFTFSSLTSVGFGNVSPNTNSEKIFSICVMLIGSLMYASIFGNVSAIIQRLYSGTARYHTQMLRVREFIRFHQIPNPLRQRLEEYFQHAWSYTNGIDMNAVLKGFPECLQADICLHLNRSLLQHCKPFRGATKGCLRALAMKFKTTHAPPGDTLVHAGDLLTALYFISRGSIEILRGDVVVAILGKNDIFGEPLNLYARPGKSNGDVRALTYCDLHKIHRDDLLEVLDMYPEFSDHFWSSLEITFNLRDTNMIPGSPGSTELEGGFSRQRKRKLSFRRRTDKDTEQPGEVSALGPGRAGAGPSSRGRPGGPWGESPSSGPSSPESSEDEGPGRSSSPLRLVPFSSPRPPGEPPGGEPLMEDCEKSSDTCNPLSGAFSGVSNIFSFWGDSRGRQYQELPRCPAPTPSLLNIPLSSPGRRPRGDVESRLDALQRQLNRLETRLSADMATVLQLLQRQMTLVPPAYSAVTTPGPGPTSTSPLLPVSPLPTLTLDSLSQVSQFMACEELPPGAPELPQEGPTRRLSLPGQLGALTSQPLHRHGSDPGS

As to `COc1cc2c(cc1OCC(F)(F)F)CCN1CC(CC(C)C)C(O)CC21` (centres undefined), the IC50 was over 100 µM in data set [1]; over 100 µM in data set [5]; 6.51 µM in [15]; over 100 µM in [16]; over 100 µM in [19]; over 100 µM in data set [24]. For the same compound, the CLint scaled at 1 µM in data set [2] came out at 31.9 mL/min/kg; in data set [9], 238 mL/min/kg; in data set [12], 8.6 mL/min/kg. This compound yielded an inhibition in vivo at 15 µmol/kg in data set [3] of 93.7%. The same compound had an AUC(0-inf) in [4] of 3.47 µM·h. For the same compound, in data set [6], the inhibition in vivo at 3 µmol/kg stood at 64.7%. Also, the remaining at 1 h, 1 µM in data set [7] was found to be 14.2%; in data set [13], 48.1%; in [23] it was 77.4%. In data set [8], the Tmax was 0.75 h. Also, the Cmax in data set [10] was found to be 1400 nM. Besides, the Vd/F in [11] is 10.8 L/kg. The compound also had a half-life in data set [14] of 2.29 h. This compound displayed a Drug uptake in [17] of 458.2 nmol/kg. In addition, the inhibition in [18] and in [22] was 99.9% in each case. For the same compound, the Kp at 6 h in [20] stood at 2.21. In addition, the CL/F in data set [21] was 53.3 mL/min/kg.
